# Experimental data reported in ChEMBL document CHEMBL1124183, “Conformations of complexes between mitomycins and decanucleotides. 3. Sequence specificity, binding at C-10, and mitomycin analogues” (1988).
# Species on record: Mus musculus
# Assay: Minimum effective dose (MED) of compound against P388 Leukemia in mice was determined
# Type: functional
# Details: read-out: MED
row,SMILES,minimal effective dose [mg/kg]
1,CO[C@@]12C(COC(N)=O)C3=C(C(=O)C(C)=C(NCCS)C3=O)N1CC1NC12 (some centres undefined),0.2
2,CO[C@@]12C(COC(N)=O)C3=C(C(=O)C(C)=C(NC=[N+](C)C)C3=O)N1CC1NC12 (some centres undefined),0.05
3,CO[C@@]12C(COC(N)=O)c3c(O)c(N=C4C=CC(=O)C=C4)c(C)c(O)c3N1CC1NC12 (some centres undefined),0.1
4,CO[C@@]12[C@H](COC(N)=O)C3=C(C(=O)C(C)=C(N)C3=O)N1C[C@@H]1N[C@@H]12 [MITOMYCIN],0.2
